Laboratory results from PubChem BioAssay (NCI).
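Test compounds were applied to cells in 96-well plates for 48 hours at 5 doses. Here, GI50 denotes the concentration required for 50% inhibition of growth. The concentration for full growth arrest is given as TGI.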

Legend:
Assay in all cases: NCI anticancer screen, dose series, 48 h; in the data active means GI50 below about 0.43 µM; inactive means the rest
[1] = tested on: 786-0 renal
[2] = tested on: A498 renal
[3] = tested on: A549 NSCLC
[4] = tested on: ACHN renal
[5] = tested on: BT-549 breast
[6] = tested on: CAKI-1 renal
[7] = tested on: CCRF-CEM leukemia
[8] = tested on: COLO 205 colon
[9] = tested on: DU-145 prostate
[10] = tested on: EKVX NSCLC
[11] = tested on: HCC-2998 colon
[12] = tested on: HCT-116 colon
[13] = tested on: HCT-15 colon
[14] = tested on: HL-60(TB) leukemia
[15] = tested on: HOP-62 NSCLC
[16] = tested on: HOP-92 NSCLC
[17] = tested on: HS 578T breast
[18] = tested on: HT29 colon
[19] = tested on: IGROV1 ovarian
[20] = tested on: K-562 leukemia
[21] = tested on: KM12 colon
[22] = tested on: LOX IMVI melanoma
[23] = tested on: M14 melanoma
[24] = tested on: MALME-3M melanoma
[25] = tested on: MCF7 breast
[26] = tested on: MDA-MB-231 breast
[27] = tested on: MDA-MB-435
[28] = tested on: MOLT-4 leukemia
[29] = tested on: NCI-H23 lung
[30] = tested on: NCI-H460 lung
[31] = tested on: NCI-H522 lung
[32] = tested on: NCI/ADR-RES ovarian
[33] = tested on: OVCAR-3 ovarian
[34] = tested on: OVCAR-4 ovarian
[35] = tested on: OVCAR-5 ovarian
[36] = tested on: OVCAR-8 ovarian
[37] = tested on: PC-3 prostate
[38] = tested on: RPMI-8226 leukemia
[39] = tested on: RXF 393 renal
[40] = tested on: SF-268 CNS
[41] = tested on: SF-295 CNS
[42] = tested on: SF-539 CNS
[43] = tested on: SK-MEL-2 melanoma
[44] = tested on: SK-MEL-28 melanoma
[45] = tested on: SK-MEL-5 melanoma
[46] = tested on: SK-OV-3 ovarian
[47] = tested on: SN12C renal
[48] = tested on: SNB-19 CNS
[49] = tested on: SNB-75 CNS
[50] = tested on: SR leukemia
[51] = tested on: SW-620 colon
[52] = tested on: T-47D breast
[53] = tested on: TK-10 renal
[54] = tested on: U251 CNS
[55] = tested on: UACC-257 melanoma
[56] = tested on: UACC-62 melanoma
[57] = tested on: UO-31 renal
[58] = tested on: NCI-H226 lung

COc1cc2c(cc1OCCCOc1cc3c(cc1OC)C(=O)N1CC(F)(F)C[C@H]1C=N3)N=C[C@@H]1CC(F)(F)CN1C2=O
2.59 µM: TGI [15]
2.65 µM: TGI [2] | TGI [22]
1.72 µM: TGI [28]
1.82 µM: TGI [56]
0.508 µM: TGI [50]
11.4 µM: TGI [25] | TGI [54]
0.708 µM: TGI [6]
2.25 µM: TGI [12]
5.46 µM: TGI [55]
8.99 µM: TGI [35]
5.79 µM: TGI [38]
5.12 µM: TGI [52]
2.87 µM: TGI [39]
1.03 µM: TGI [31]
50.6 µM: TGI [13]
> 30.3 µM: TGI [46]
2 µM: TGI [14]
3.45 µM: TGI [11]
12.5 µM: TGI [53]
15.3 µM: TGI [17]
13.9 µM: TGI [4]
4.91 µM: TGI [27]
12.8 µM: TGI [43]
inactive: GI50 [2] 1.03 µM | GI50 [3] 3.79 µM | GI50 [4] 0.973 µM | GI50 [5] 0.727 µM | GI50 [8] 0.814 µM | GI50 [10] 1.66 µM | GI50 [11] 1.37 µM | GI50 [13] 10.4 µM | GI50 [17] 3.13 µM | GI50 [18] 0.641 µM | GI50 [20] 0.601 µM | GI50 [21] 2.37 µM | GI50 [23] 0.698 µM | GI50 [24] 1.27 µM | GI50 [26] 1.31 µM | GI50 [27] 1.6 µM | GI50 [29] 0.492 µM | GI50 [32] 21.4 µM | GI50 [34] 3.45 µM | GI50 [35] 1.74 µM | GI50 [36] 0.899 µM | GI50 [37] 1.28 µM | GI50 [38] 1.64 µM | GI50 [39] 1.38 µM | GI50 [43] 2.32 µM | GI50 [44] 1.95 µM | GI50 [45] 1.15 µM | GI50 [46] 1.02 µM | GI50 [48] 0.446 µM | GI50 [49] 1.58 µM | GI50 [51] 0.469 µM | GI50 [53] 3.56 µM | GI50 [55] 2 µM | GI50 [57] 1.24 µM
2.33 µM: TGI [19]
17.8 µM: TGI [40]
5.47 µM: TGI [44]
1.06 µM: TGI [7]
> 100 µM: TGI [3]
active: GI50 [6] 0.185 µM | GI50 [9] 0.329 µM | GI50 [12] 0.415 µM | GI50 [14] 0.0984 µM | GI50 [15] 0.206 µM | GI50 [16] 0.336 µM | GI50 [19] 0.116 µM | GI50 [22] 0.256 µM | GI50 [25] 0.195 µM | GI50 [28] 0.0383 µM | GI50 [30] 0.0551 µM | GI50 [31] 0.228 µM | GI50 [33] 0.42 µM | GI50 [40] 0.216 µM | GI50 [41] 0.0635 µM | GI50 [42] 0.165 µM | GI50 [47] 0.269 µM | GI50 [50] < 0.0261 µM | GI50 [52] 0.344 µM | GI50 [54] 0.166 µM | GI50 [56] 0.365 µM
3.7 µM: TGI [23]
0.539 µM: TGI [41]
> 84 µM: TGI [32]
7.73 µM: TGI [16]
0.877 µM: TGI [1]
18.4 µM: TGI [49]
> 33.1 µM: TGI [57]
3.19 µM: TGI [24]
2.72 µM: TGI [42]
2.39 µM: TGI [45]
4.03 µM: TGI [51]
9.9 µM: TGI [37]
13 µM: TGI [18]
13.6 µM: TGI [21]
17.4 µM: TGI [34]
4.81 µM: TGI [20]
9.86 µM: TGI [29]
2.45 µM: TGI [30]
18.3 µM: TGI [48]
6.99 µM: TGI [33]
2.49 µM: TGI [8]
6.77 µM: TGI [26]
7.06 µM: TGI [10]
2.82 µM: TGI [9]
> 37.2 µM: TGI [47]
9.16 µM: TGI [36]
3.12 µM: TGI [5]

N=C(N)c1ccc(CS(=O)(=O)F)cc1
inactive: GI50 [1] > 100 µM | GI50 [3] > 100 µM | GI50 [4] > 100 µM | GI50 [5] > 100 µM | GI50 [6] > 100 µM | GI50 [8] > 100 µM | GI50 [9] > 100 µM | GI50 [10] > 100 µM | GI50 [11] > 100 µM | GI50 [12] > 100 µM | GI50 [13] > 100 µM | GI50 [15] > 100 µM | GI50 [16] > 100 µM | GI50 [17] > 100 µM | GI50 [18] > 100 µM | GI50 [19] > 100 µM | GI50 [20] > 100 µM | GI50 [21] > 100 µM | GI50 [22] 81.2 µM | GI50 [23] > 100 µM | GI50 [24] > 100 µM | GI50 [25] > 100 µM | GI50 [26] > 100 µM | GI50 [27] > 100 µM | GI50 [28] > 100 µM | GI50 [58] > 100 µM | GI50 [29] > 100 µM | GI50 [30] > 100 µM | GI50 [31] > 100 µM | GI50 [32] > 100 µM | GI50 [33] > 100 µM | GI50 [34] > 100 µM | GI50 [35] > 100 µM | GI50 [36] > 100 µM | GI50 [37] > 100 µM | GI50 [39] > 100 µM | GI50 [40] > 100 µM | GI50 [41] > 100 µM | GI50 [42] > 100 µM | GI50 [43] > 100 µM | GI50 [44] > 100 µM | GI50 [45] > 100 µM | GI50 [46] > 100 µM | GI50 [47] > 100 µM | GI50 [48] > 100 µM | GI50 [49] > 100 µM | GI50 [51] > 100 µM | GI50 [52] > 100 µM | GI50 [53] > 100 µM | GI50 [54] > 100 µM | GI50 [55] > 100 µM | GI50 [56] > 100 µM | GI50 [57] > 100 µM
> 100 µM: TGI [1] | TGI [3] | TGI [4] | TGI [5] | TGI [6] | TGI [8] | TGI [9] | TGI [10] | TGI [11] | TGI [12] | TGI [13] | TGI [15] | TGI [16] | TGI [17] | TGI [18] | TGI [19] | TGI [20] | TGI [21] | TGI [22] | TGI [23] | TGI [24] | TGI [25] | TGI [26] | TGI [27] | TGI [28] | TGI [58] | TGI [29] | TGI [30] | TGI [31] | TGI [32] | TGI [33] | TGI [34] | TGI [35] | TGI [36] | TGI [37] | TGI [39] | TGI [40] | TGI [41] | TGI [42] | TGI [43] | TGI [44] | TGI [45] | TGI [46] | TGI [47] | TGI [48] | TGI [49] | TGI [51] | TGI [52] | TGI [53] | TGI [54] | TGI [55] | TGI [56] | TGI [57]

O=C1/C(=N/N=C(c2ccccc2)c2ccccc2)c2ccccc2-c2ccccc21
> 100 µM: TGI [1] | TGI [3] | TGI [4] | TGI [5] | TGI [6] | TGI [8] | TGI [9] | TGI [10] | TGI [12] | TGI [13] | TGI [14] | TGI [15] | TGI [17] | TGI [18] | TGI [19] | TGI [20] | TGI [21] | TGI [22] | TGI [23] | TGI [24] | TGI [25] | TGI [26] | TGI [27] | TGI [28] | TGI [58] | TGI [29] | TGI [30] | TGI [31] | TGI [32] | TGI [33] | TGI [34] | TGI [35] | TGI [36] | TGI [37] | TGI [39] | TGI [40] | TGI [41] | TGI [42] | TGI [43] | TGI [44] | TGI [45] | TGI [46] | TGI [47] | TGI [48] | TGI [49] | TGI [50] | TGI [51] | TGI [52] | TGI [53] | TGI [54] | TGI [55] | TGI [56] | TGI [57]
87.8 µM: TGI [16]

CN(C)CCn1c2c(c3ccccc31)CCc1ccccc1-2
29.7 µM: TGI [17]
37.7 µM: TGI [27]
28.4 µM: TGI [1]
26.3 µM: TGI [12] | TGI [21] | TGI [23]
40.4 µM: TGI [51]
28.3 µM: TGI [3] | TGI [34] | TGI [38] | TGI [47]
54.8 µM: TGI [52]
30.6 µM: TGI [41]
29.8 µM: TGI [9]
27.7 µM: TGI [33] | TGI [55]
16.7 µM: TGI [11]
32.4 µM: TGI [10]
21.8 µM: TGI [19]
44.6 µM: TGI [7]
32.2 µM: TGI [22]
29.1 µM: TGI [15] | TGI [28]
26 µM: TGI [58]
28.6 µM: TGI [43]
26.8 µM: TGI [54] | TGI [57]
27.1 µM: TGI [50]
29.4 µM: TGI [6] | TGI [31]
33.5 µM: TGI [48]
27.8 µM: TGI [5]
29.9 µM: TGI [4] | TGI [32] | TGI [44]
32.3 µM: TGI [40]
29.5 µM: TGI [36]
32.7 µM: TGI [46]
31.4 µM: TGI [29]
29.3 µM: TGI [26]
25.6 µM: TGI [8]
22.5 µM: TGI [13]
27.5 µM: TGI [30]
25.9 µM: TGI [56]
30.5 µM: TGI [24] | TGI [25] | TGI [53]
27 µM: TGI [16]
21.1 µM: TGI [18] | TGI [45]
23.5 µM: TGI [37]
31.7 µM: TGI [35]
26.2 µM: TGI [42]
